“Also recorded” adds a separate entry of the source. Where two headings read alike, the source gives them in different places.
Experiments:
mice with DTH = experiment: In vivo model of delayed type hypersensitivity (DTH), paw swelling (FIG. 8); conditions: mice treated with MSCs pre-incubated with or without oligomycin
GVHD mice = experiment: In vivo model of graft versus host disease (GVHD), Kaplan-Meier survival (FIG. 9); conditions: UC-MSCs pre-treated or not with oligomycin
Description: FIG. 9. […] A) Experimental design of the in vivo model of GVHD. B) Kaplan-Meier plot showing the survival rate of GVHD mice compared to UC-MSCs that were pre-treated or not with oligomycin. N=15 mice per experimental group performed at least 2 times independently—* p<0.05.

[1] = system: human mononuclear cells (PBMC); experiment: Immunosuppression at different oligomycin pretreatment concentrations, co-culture with human PBMC (FIG. 14); type: cell-based; conditions: pretreatment at 0.1 μg/ml, 1 μg/ml and 10 μg/ml; 4 days co-culture
Description: FIG. 14. […] MSC were with different oligomycin concentration (0.1 μg/ml, 1 μg/ml and 10 μg/ml), the media was removed and the cells were washed and cultured with freshly isolated human mononuclear cells (PBMC) that were stained with cell trace violet. Proliferation of CD4+ and CD8+ was quantified after 4 days of co-culturing by flow cytometry and graphed. N=3 PBMC and * p<0.05.
The inventors developed and immunosuppression experiment where the MSCs were pretreated with different concentrations of ATP-Synthase inhibitor, such as Oligomycin, more specifically at 0.1 μg/ml, 1 μg/ml and 10 μg/ml. After the pretreatment, the media with ATP-synthase inhibitor was removed, the MSCs were washed, and the MSC were cultured with freshly isolated human mononuclear cells (PBMC) that were stained with cell trace violet.

UC-MSCs [2] = experiment: Transmigration of UC-MSCs through a semipermeable membrane with 8 μM pores (FIG. 11); type: cell-based; conditions: quantified at 8 hours and 24 hours; 5% fetal bovine serum in lower chamber
Description: FIG. 11. UC-MSCs pretreated with oligomycin promote their transmigration potential. GlycoStem cells were cultured on a semipermeable membrane with […] diameter pores. Cells were seeded in serum-free medium in the upper chamber, while DMEM medium with 5% fetal bovine serum was added in the lower chamber to induce transmigration of the cells. Cell migration was quantified 8 hours (A and B) and 24 hours (C and D) later. […] N=3 different donors from 3 independent experiments * p<0.05.

murine CD4 = experiment: Immunosuppression after 6 or 24 hours pretreatment, co-culture with murine CD4 (FIG. 15); type: cell-based; conditions: 3 days co-culture
Description: FIG. 15. […] MSC were treated for 6 and 24 hours oligomycin. Then, the media was removed, the cells were washed and these pretreated MSCs were co-cultured during 3 days with freshly isolated murine CD4 that were stained with cell trace violet. Proliferation of CD4+ was quantified by flow cytometry and graphed. N=4 different mice and * p<0.05.
The inventor developed an incubation experiment were the MSC were treated for 6 and 24 hours with an ATP-Synthase inhibitor, such as Oligomycin. After this treatment, the media with ATP-synthase inhibitor was removed, the MSCs were washed, and the MSCs were co-cultured during 3 days with murine freshly isolated CD4 and their effects were compared.

PBMC = experiment: Coculture of human BM-MSCs, UC-MSCs or MenSC with phytohemaglutinine-activated PBMC, T-CD4 and T-CD8 proliferation by FACS (FIG. 12); type: cell-based; conditions: BM-MSCs, 1 MSCs:20 PBMCs ratio, 4 days
Description: FIG. 12. […] Human BM-MSCs, UC-MSCs or MenSC were coculture with freshly isolated PBMC activated with phytohemaglutinine in a 1 MSCs:20 PBMCs ratio. After 4 days proliferation was measured by quantifying the decrease in cell fluorescence on either T-CD4 (A) or T-CD8 (B) cells in PBMCs by FACS. Results are represented as mean and SD of 3 independent experiments using at least 3 different PBMC donors and 2 different BM-MSCs, MenSC and UC-MSCs donors. Statistical analyses used the non-parametric Friedman test comparing more than two groups (*, p<0.05; **, p<0.01; ***, p<0.005).

UC-MSCs [3] = experiment: Chondrogenic differentiation of UC-MSCs: micromass, Aggrecan qPCR, Collagen II vs Collagen I ratio (FIG. 5); type: cell-based; conditions: basal media; for ratio of Collagen II vs Collagen I production: compared to MSC in basal media (CTL)
Description: FIG. 5. […] UC-MSCs were differentiated towards chondrogenic lineage. […] The relative expression of the proteoglycan Aggrecan, which is typically expressed in hyaline cartilage, was quantified by qPCR. […] When MSC on basal media (CTL) are compared to MSC treated with inhibitors of the ATP-synthase, these treated MSC present chondrogenic behaviour on the ratio of Collagen II vs Collagen I proportion. […] Also, some inhibitors present the same behaviour than MSC in differentiation media (differentiation) (D).

UC-MSCs [4] = experiment: Metabolic status (OCR, ECAR, lactate efflux) and surface markers of treated MSCs (FIG. 4); type: cell-based
Description: FIG. 4. […] (A) MSCs treated with ATP-Synthase inhibitors show a diminished oxidative phosphorylation, quantified as oxygen consumption rate (OCR), (B) and an enhanced glycolysis, shown as extracellular acidification rate (ECAR).
In order to determine the efficiency of MSCs treated with ATP-synthase inhibitors, the inventors first evaluated the glycolytic status of UC-MSCs using biochemical parameters such as lactate production and glucose consumption and also if possible, the metabolic status of MSCs treated with ATP-synthase inhibitors was evaluated in real time by measuring the oxygen consumption rate (OCR) or the extra cellular acidification rate (ECAR) by the Seahorse™ technology. Moreover, different functional assays were carried out in order to compare the efficacy of MSCs treated with ATP-synthase inhibitors as compared to non-treated UC-MSCs including evaluation of the differentiation potential towards chondrocytes, viability assays of MSCs, chondroprotection assays, immunosuppression assays and in vivo evaluation using joint inflammation murine models.

## CC[C@H]1/C=C/C=C/C[C@@H](C)[C@H](O)[C@@](C)(O)C(=O)[C@@H](C)[C@H](O)[C@@H](C)C(=O)[C@@H](C)[C@H](O)[C@@H](C)/C=C/C(=O)O[C@@H]2[C@H](C)[C@H](CC1)O[C@]1(CC[C@H](C)[C@H](C[C@@H](C)O)O1)[C@H]2C [oligomycin, Oligomycin]
Mice with DTH
  limb swelling (Paw Swelling) / inflammation in DTH: increases the therapeutic potential of MSCs
GVHD mice
  survival rate of GVHD mice: increases the survival rate
[1]
  suppressive activity (proliferation of CD4+ and CD8+): enhanced suppressive activity that is dose dependent
UC-MSCs [2]
  transmigration / migratory capacity: significantly increase their migratory capacity
Murine CD4; 6 hours pretreatment
  suppressive activity (proliferation of CD4+): enhanced the suppressive activity of MSCs
Murine CD4; 24 hours pretreatment
  suppressive activity (proliferation of CD4+): enhanced suppressive activity; also recorded: highest enhancement of the MSCs suppression activity
PBMC
  immunosuppressive abilities of human MSCs (T-CD4 and T-CD8 proliferation): enhances the immunosuppressive abilities of human MSCs independent on the origin
UC-MSCs [3]
  ratio of Collagen II vs Collagen I production: fold change in the production of collagen type 2 versus collagen type 1
UC-MSCs [3]; compared to untreated control
  relative expression of the proteoglycan Aggrecan (qPCR): increased relative expression; also recorded: increase in the relative expression
UC-MSCs [3]; no differentiation media, 24Hrs pre-treatment
  generation of three-dimensional tissue (micromass) / spontaneous differentiation into chondrocytes: even greater than the three-dimensional tissue obtained by using the differentiation media alone; also recorded: spontaneously differentiate into chondrocytes; also recorded: stimulates the spontaneous differentiation towards a functional three-dimensional cartilage
UC-MSCs [4]
  metabolic switch towards glycolytic dependent metabolism (ECAR/OCR ratio): inducing a strongly glycolytic-dependent metabolism
UC-MSCs [4]; after metabolic switch
  Surface markers of UC-MSC: not affected
UC-MSCs [4]; listed as Oligomycin
  metabolic switch towards glycolytic dependent metabolism (ECAR/OCR ratio): induces a glycolytic dependent metabolism

## Oc1ccc(C=Cc2cc(O)cc(O)c2)cc1 [resveratrol, Resveratrol]
UC-MSCs [3]
  ratio of Collagen II vs Collagen I production: fold change in the production of collagen type 2 versus collagen type 1; also recorded: promote the MSC in basal media to behave as MSC that are in a differentiation media

— patent US20220290105A1, “MESENCHYMAL STEM CELLS WITH ENHANCED THERAPEUTIC PROPERTIES” (CELLS FOR CELLS S.A., priority 2019, published 2022)
